Experimental data: ChEMBL document CHEMBL4673244 (J Med Chem, 2020)

What was measured:
physchem = settings: buffer, pH 7.4
in vitro [1] = settings: dog, MDCK
in vitro [2] = settings: human, liver microsomes
in vitro [3] = settings: human, hepatocytes

Row | Structure (SMILES) | logD (physchem) | Papp (in vitro [1]) | microsomal CLint (in vitro [2]) | hepatocyte CLint (in vitro [3])
1 | C[C@H]1[C@H](O)CN1c1nc(N2C[C@@H]3[C@@H](CO)[C@@H]3C2)cc(C(F)(F)F)c1C#N | 3.3 | – | – | –
2 | C[C@H]1[C@H](O)CN1c1nc(N2C[C@@H]3[C@@H](CC(=O)O)[C@@H]3C2)cc(C(F)(F)F)c1C#N | 1 | 5.6 ×10⁻⁶ cm/s | < 11 µL/min/mg | 26 µL/min/1e6 cells
3 | C[C@H]1[C@H](O)CN1c1nc(N2C[C@@H]3[C@@H](CC(=O)O)[C@@H]3C2)cc(C(F)(F)F)n1 | 0.1 | 1.4 ×10⁻⁶ cm/s | – | < 2 µL/min/1e6 cells

Second part, the compound after the results:

Row | logD (physchem) | Papp (in vitro [1]) | microsomal CLint (in vitro [2]) | hepatocyte CLint (in vitro [3]) | Structure (SMILES)
4 | 2.2 | 3.5 ×10⁻⁶ cm/s | < 13 µL/min/mg | – | C[C@]1(O)CCN(c2nc(N3C[C@H](O)[C@@H](O)C3)cc(C(F)(F)F)c2C#N)C1
5 | 0.6 | – | – | – | C[C@H]1[C@H](O)CN1c1nc(N2C[C@@H]3[C@H](C2)[C@H]3C(=O)O)cc(C(F)(F)F)c1C#N
